Test results: US8334280B2, “Ligands of estrogen receptors α and β, method of their preparation, and pharmaceuticals comprising them” (Ustav Molekularni Genetikv AV CR, V.V.I., priority 2008, dated 2012)

Assays:
Type in all cases: cell-based
human ERα = biological target: T1, human ERα (Homo sapiens, UniProt P03372); assay: reporter assay (luciferase) in COS-7 cells transfected with human ERα; conditions: for EC50: COS-7 cells, 24 h with compound, luciferase, read-out: EC50 of tested ligands in the reporter assays, ER α; for ligand selectivity for ERα in the reporter assays: ratio of relative activities of ERα and ERβ, E2 = 1.00
T1 construct: expressed in transfected cells; host or cells: COS-7
T1 sequence (P03372 1-595): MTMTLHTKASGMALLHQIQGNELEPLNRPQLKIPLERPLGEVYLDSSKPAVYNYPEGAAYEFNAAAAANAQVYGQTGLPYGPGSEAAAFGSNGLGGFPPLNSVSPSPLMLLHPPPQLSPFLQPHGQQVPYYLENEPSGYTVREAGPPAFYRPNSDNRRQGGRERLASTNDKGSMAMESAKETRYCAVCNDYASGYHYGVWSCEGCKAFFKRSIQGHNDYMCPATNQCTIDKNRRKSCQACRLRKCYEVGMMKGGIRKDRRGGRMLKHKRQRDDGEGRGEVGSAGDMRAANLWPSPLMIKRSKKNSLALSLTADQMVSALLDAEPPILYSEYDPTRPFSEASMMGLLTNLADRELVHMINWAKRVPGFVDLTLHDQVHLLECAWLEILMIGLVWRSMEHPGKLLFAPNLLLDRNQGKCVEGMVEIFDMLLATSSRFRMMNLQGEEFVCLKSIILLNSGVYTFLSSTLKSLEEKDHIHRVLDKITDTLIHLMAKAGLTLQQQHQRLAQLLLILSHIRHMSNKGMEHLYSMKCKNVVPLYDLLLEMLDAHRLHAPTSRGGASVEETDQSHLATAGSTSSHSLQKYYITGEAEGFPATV
Experimental: (§1) The activity of some of the selected novel ligands of estrogen receptors was determined in reporter assays with the COS-7 cells. The reporter assay has an advantage over a classical determination of the ligand binding affinity for the receptor because in the case of steroid hormone receptors the high affinity of the ligand for the receptor doesn't always result in the equally high potency of activating the transcription via the receptor. The COS-7 cell line provides a significant advantage for this type of experiment, since it doesn't express endogenous ERα or ERβ at significant levels, and therefore it is highly suitable for the reporter assays. In addition, these compounds were also tested in the reporter assays with HEK293 cell-line.
(§2) COS-7 cells were transfected with the expression vector encoding human ERα or ERβ and with the reporter vector containing one estrogen responsive element followed by the minimal thymidine kinase promoter from the herpes simples virus. Luciferase was used as a reporter gene. The cells were seeded in a white 96-well plate after transfection, and were further cultivated in the DMEM medium without phenol red containing 2 mM glutamine, 20 mM Hepes, pH 7.5, 5 μg/ml insulin, 5 μg/ml human transferine, 100 μg/m1 bovine serum albumin (BSA). Serially diluted compounds in DMSO were added to cells 24 hours after transfection, and after the next 24 hours the luciferase activity was measured using the commercial STEADY-GLO Luciferase Assay Kit (Promega) according to the manufacturer's instructions. The luminescence was measured using the combined spectrophotometer ENVISION (PerkinElmer) with 1 s signal integration. […] The ligand selectivity for the given receptor was calculated as a ratio of relative activities of ERα and ERβ for the given ligand.

human ERβ = biological target: T2, human ERβ (Homo sapiens, UniProt Q92731); assay: reporter assay (luciferase) in COS-7 cells transfected with human ERβ; conditions: for EC50: COS-7 cells, 24 h with compound, luciferase, read-out: EC50 of tested ligands in the reporter assays, ER β; for ligand selectivity for ERβ in the reporter assays: ratio of relative activities of ERα and ERβ, E2 = 1.00
T2 construct: expressed in transfected cells; host or cells: COS-7
Experimental: as §1, §2

MCF-7 cells = assay: proliferation assay in estrogen-growth-dependent MCF-7 cell line; conditions: for proliferation effect on MCF-7 cells: 1 nM concentration
Experimental: The MCF-7 cell line was derived from a breast adenocarcinoma and, considering its growth dependency on estrogen, it is a valuable tool for evaluation of estrogenic properties of chemical compounds. Since MCF-7 cells express exclusively ERα, the proliferative effect of tested compounds is mediated mainly by this receptor.
MCF-7 cells were cultivated for 6 days in DMEM medium without phenol red containing 8% charcoal treated fetal calf serum and 2 mM glutamine. During this time the cells stopped proliferating and the medium was supplemented with different concentrations of tested compounds in DMSO. The cells were further cultured in the medium described above in the presence of tested compounds, and after 3 days the medium was changed and the tested compounds in DMSO were added to the medium once again. After another 3 days the amount of viable cells was measured using the kit […]-BLUE Cell Viability Assay (Promega) according to the manufacturer's instructions. The fluorescent measurement was carried out on the combined spectrophotometer ENVISION (PerkinElmer), and the results are shown in FIGS. 8 and 9.

T2 sequence (Q92731 whole entry): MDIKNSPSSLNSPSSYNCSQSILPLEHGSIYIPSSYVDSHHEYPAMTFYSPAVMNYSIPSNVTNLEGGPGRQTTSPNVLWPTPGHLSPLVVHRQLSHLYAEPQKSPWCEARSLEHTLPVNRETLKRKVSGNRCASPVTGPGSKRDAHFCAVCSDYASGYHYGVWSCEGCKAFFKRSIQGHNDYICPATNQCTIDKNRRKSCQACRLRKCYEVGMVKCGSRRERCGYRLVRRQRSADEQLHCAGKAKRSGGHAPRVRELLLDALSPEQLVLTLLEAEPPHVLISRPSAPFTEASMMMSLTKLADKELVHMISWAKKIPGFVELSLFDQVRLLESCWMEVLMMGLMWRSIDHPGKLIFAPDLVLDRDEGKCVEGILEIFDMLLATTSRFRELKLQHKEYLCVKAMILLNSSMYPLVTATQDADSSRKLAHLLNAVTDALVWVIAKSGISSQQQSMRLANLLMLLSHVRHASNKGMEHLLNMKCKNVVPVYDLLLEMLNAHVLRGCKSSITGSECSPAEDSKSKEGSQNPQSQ

SMILES | EC50 (human ERα) [µM] | ligand selectivity for ERα in the reporter assays (human ERα) | EC50 (human ERβ) [µM] | ligand selectivity for ERβ in the reporter assays (human ERβ) | proliferation effect on MCF-7 cells (MCF-7 cells) | stimulation of ERα in the reporter assays (human ERα; 1 nM) | toxic effect on MCF-7 cells (MCF-7 cells; high concentrations of ligands (1-10 μM))
CCOC(=O)C1(C(=O)OCC)Cc2ccc([C@]3(O)CC[C@H]4[C@@H]5CCc6cc(O)ccc6[C@H]5CC[C@@]43C)cc2C1 [PN202, 17α[2,2-Bis(ethoxycarbonyl)-1,3-dihydro-2H-inden-5-yl]-estradiol] | 0.00385 | 1.83 | 0.0193 | 0.55 | comparable to estradiol |  | 
CC(=O)C1(C(C)=O)Cc2ccc([C@]3(O)CC[C@H]4[C@@H]5CCc6cc(O)ccc6[C@H]5CC[C@@]43C)cc2C1 [PN228, 17α-(2,2-Diacetyl-1,3-dihydro-2H-inden-5-yl)-estradiol] | 0.019 | 1.16 | 0.0604 | 0.86 |  |  | 
Cc1ccc(S(=O)(=O)N2Cc3ccc([C@]4(O)CC[C@H]5[C@@H]6CCc7cc(O)ccc7[C@H]6CC[C@@]54C)cc3C2)cc1 [PN229, 17α-(1,3-Dihydro-2-tosyl-2H-indol-5-yl)-estradiol] |  |  | 0.0627 |  |  |  | 
CCOC(=O)C1(C#N)Cc2ccc([C@]3(O)CC[C@H]4[C@@H]5CCc6cc(O)ccc6[C@H]5CC[C@@]43C)cc2C1 (stereo partly drawn) [PN233, 17α-[2-Cyano-2-(ethoxycarbonyl)-1,3-dihydro-2H-inden-5-yl]-estradiol] |  |  | 0.0128 |  |  |  | 
C[C@]12CC[C@@H]3c4ccc(O)cc4CC[C@H]3[C@@H]1CC[C@@]2(O)c1ccc2c(c1)CCC2 [PN214, 17α-(1,3-Dihydro-2H-inden-5-yl)-estradiol] | 0.0211 | 0.02 | 0.00108 |  | no activity | doesn't stimulate ERα | 
CCOC(=O)C1(C(C)=O)Cc2ccc([C@]3(O)CC[C@H]4[C@@H]5CCc6cc(O)ccc6[C@H]5CC[C@@]43C)cc2C1 (stereo partly drawn) [PN207, 17α-[2-Acetyl-2-(ethoxycarbonyl)-1,3-dihydro-2H-inden-5-yl]-estradiol] |  |  | 0.0145 |  |  |  | 
C[C@]12CC[C@@H]3c4ccc(O)cc4CC[C@H]3[C@@H]1CC[C@@H]2O [Ligand E2, estradiol, reference compound] |  |  |  |  |  |  | toxic effect
